Data from patent US20110206647A1, “Modulation of Angiogenesis” (ABT Holding Company, priority 2010, published 2011).

Assays:
[1] = system: human umbilical vein endothelial cell (HUVEC); assay: in vitro HUVEC angiogenesis (tube formation) assay; assay type: cell-based; conditions: for induction of angiogenesis by factor added to basal media: MultiStem basal media, IL-8 4000 pg/ml, CXCL5 150 pg/ml
Procedure: Growth factor-reduced Matrigel (BD Bioscience, San Jose, Calif.) was thawed on ice at 4° C. overnight and used at a concentration of 6.0-6.5 mg/ml, diluted on ice using ice-cold 1×PBS. Four-hundred microliters of Matrigel was distributed into the inner wells of a 24-well tissue culture plate and allowed to solidify for 1 hour at 37° C. Addition of Matrigel was done on ice and outer wells of plate were filled with 1 ml of 1×PBS.
HUVECs were harvested according to the following protocol: Cells were washed with 1×PBS followed by a brief rinse with 0.25× trypsin-EDTA and then quenched using the 1×PBS (with residual serum) wash. Cells were resuspended in endothelial cell basal media (EBM) and counted. HUVECs were added to the CM, other experimental conditions and controls at a concentration of 55,000 cells/ml/well. Each sample and control was assayed in triplicate. Plates were incubated for 6 hours or 18 hours at 5% CO2 and 37° C. to allow for tube formation. Four fields per well were analyzed for a total of 12 fields. Pictures were taken at using 10× objective. Angiogenesis was scored by counting the number of tubes formed between cells. Results are expressed as average tubes formed per field +/−SEM.
To test whether MultiStem secretes factors which promote angiogenesis, an in vitro angiogenesis assay using conditioned media from MultiStem was utilized. MultiStem were plated under normal conditions for 24 hours. The cells were then transferred to serum-free conditions to generate conditioned media for four days. This media was then tested for angiogenic activity in an in vitro tube formation assay. […] HUVECs were plated in conditioned media, basal media or endothelial growth media for 18 hours. Angiogenesis was measured as the average number of tubes formed per field of view for each condition. In the absence of any additional factors, the presence of serum alone in basal media can induce angiogenesis. Therefore, serum-free media was used for all the experiments.

[2] = system: MultiStem; assay: RT-PCR analysis of pro-angiogenic gene expression in treated MultiStem; assay type: cell-based, human
Procedure: FIG. 7—Treatment of MultiStem with Cytomix increases the expression of pro-angiogenic molecules in vitro. MultiStem was grown for three days and then treated with Cytomix (10 ng/mL TNF-α, IL-1β and IFNγ) for 24, 48, 72 hrs. The cells were subsequently collected for RT-PCR analysis for pro-angiogenic gene expression.
FIGS. 10A-C—Pre-treatment of MultiStem with prostaglandin F or latanoprost (prostaglandin F agonist) increases expression of the angiogenic factors by MultiStem in vitro. […] MultiStem was treated with a dose range of Latanoprost for 24, 48 or 72 hours. Gene expression of pro-angiogenic factors was then analyzed by RT-PCR. Gene expression of KITLG (A), HGF and VEGF (B), and Il-8 (C) were all increased.

[3] = MultiStem treated 24, 48, 72 hrs
[4] = MultiStem treated 24, 48 or 72 hours

Compound: CC(C)OC(=O)CCC/C=C\C[C@@H]1[C@@H](CC[C@@H](O)CCc2ccccc2)[C@H](O)C[C@@H]1O [latanoprost]
- angiogenesis, CM from untreated cells with agent added after collection vs CM alone ([1]; 1 uM added to media after collection): equal levels
- tube formation, basal media with added agent ([1]; 1 uM in basal media, no cells): did no induce significant tube formation
- HUVEC tube formation, conditioned media from treated MultiStem vs untreated ([1]; MultiStem cultured three days with 1 uM, serum-free CM): increased modestly
- HGF gene expression [2, 3]: increased
- IL-8 gene expression [2, 3]: increased
- VEGF (VEGF A) gene expression [2, 4]: increased
- KITLG gene expression ([2]; MultiStem treated 24, 48 or 72 hours, dose range): increased

Compound: CXCL5: angiogenic cytokine added to MultiStem basal media (150 pg/ml)
- induction of angiogenesis by factor added to basal media [1]: not sufficient to induce angiogenesis

Compound: IL-8: interleukin 8 added to MultiStem basal media (4000 pg/ml)
- induction of angiogenesis by factor added to basal media [1]: not sufficient to induce angiogenesis

Compound: prostaglandin F
- VEGF (VEGF A) gene expression [2, 4]: increased
